Assays:
[1] = target: MAGL (Mus musculus (Mouse), UniProt O35678); experiment: In vitro competitive activity-based protein profiling, MAGL (mouse); assay type: biochemical; conditions: for inhibition at 1 µM: read-out: MAGL % inh. 1 μM (mouse)
Protocol: (§1) In Vitro Competitive Activity-Based Protein Profiling.
(§2) Proteomes (mouse brain membrane fraction or cell lysates for mouse assays; human prefrontal cortex or cell membrane fractions for human assays) (50 μL, 1.0 mg/mL total protein concentration) were preincubated with varying concentrations of inhibitors at 37° C. After 30 min, FP—Rh or HT-01 (1.0 μL, 50 μM in DMSO) was added and the mixture was incubated for another 30 min at 37° C. Reactions were quenched with SDS loading buffer (15 μL-4×) and run on SDS-PAGE. Following gel imaging, serine hydrolase activity was determined by measuring fluorescent intensity of gel bands corresponding to MAGL and FAAH using ImageJ 1.43u software.

[2] = target: FAAH (Mus musculus (Mouse), UniProt O08914); experiment: In vitro competitive activity-based protein profiling, FAAH (mouse); assay type: biochemical; conditions: for inhibition at 1 µM: read-out: FAAH % inh. 1 μM (mouse)
Protocol: as §1, §2

Sequence of MAGL (O35678 whole entry): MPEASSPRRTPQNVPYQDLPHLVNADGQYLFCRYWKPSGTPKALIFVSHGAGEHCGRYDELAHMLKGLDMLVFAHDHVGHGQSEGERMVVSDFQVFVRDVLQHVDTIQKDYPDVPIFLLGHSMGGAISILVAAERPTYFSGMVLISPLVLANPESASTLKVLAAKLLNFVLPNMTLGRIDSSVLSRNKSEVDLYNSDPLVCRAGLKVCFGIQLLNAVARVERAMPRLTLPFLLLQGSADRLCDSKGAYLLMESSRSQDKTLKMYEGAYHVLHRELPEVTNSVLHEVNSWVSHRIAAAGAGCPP
Sequence of FAAH (O08914 whole entry): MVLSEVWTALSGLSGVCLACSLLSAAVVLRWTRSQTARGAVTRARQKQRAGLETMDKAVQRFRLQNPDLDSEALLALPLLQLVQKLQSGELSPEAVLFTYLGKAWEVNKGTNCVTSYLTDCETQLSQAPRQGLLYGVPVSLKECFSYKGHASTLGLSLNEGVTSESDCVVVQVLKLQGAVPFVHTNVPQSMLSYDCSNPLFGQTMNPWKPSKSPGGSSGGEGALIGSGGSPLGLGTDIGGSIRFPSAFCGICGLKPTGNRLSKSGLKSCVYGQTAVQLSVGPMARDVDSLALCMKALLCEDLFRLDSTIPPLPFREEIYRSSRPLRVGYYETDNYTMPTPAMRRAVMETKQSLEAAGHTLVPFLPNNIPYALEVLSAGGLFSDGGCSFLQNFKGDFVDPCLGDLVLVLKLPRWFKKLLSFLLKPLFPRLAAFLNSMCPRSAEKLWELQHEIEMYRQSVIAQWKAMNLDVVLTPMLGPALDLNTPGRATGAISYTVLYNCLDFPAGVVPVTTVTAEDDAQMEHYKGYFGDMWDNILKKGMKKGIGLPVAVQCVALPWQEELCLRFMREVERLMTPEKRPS

Row | SMILES | inhibition at 1 µM [1] [%] | inhibition at 1 µM [2] [%] | IC50 [1] [nM] | IC50 [2] [nM]
1 | CC(=O)N(C)c1cnn(C(=O)N2CCC3(CCN(Cc4cc(Cl)cc(Cl)c4)C3)C2)c1 (stereo not shown) [Example 53, N-(1-(7-(3,5-dichlorobenzyl)-2,7-diazaspiro[4.4]nonane-2-carbonyl)-1H-pyrazol-4-yl)-N-methylacetamide] | ≥ 75 | ≥ 75 | 100 to 1000 | ≤ 100
2 | CC(=O)Nc1cnn(C(=O)N2CCN(Cc3ccc(C(F)(F)F)cc3N3C4CCC3COC4)CC2)c1 [Example 228, N-(1-(4-(2-(3-oxa-8-azabicyclo[3.2.1]octan-8-yl)-4-(trifluoromethyl)benzyl)piperazine-1-carbonyl)-1H-pyrazol-4-yl)acetamide] | ≥ 75 | 0 to 25 | 100 to 1000 | 1000 to 10000
3 | CC(=O)N(C)c1cnn(C(=O)N2CC3CN(Cc4cc(N5CCCC5)cc(C(F)(F)F)c4)CC3C2)c1 (stereo not shown) [Example 112, N-methyl-N-(1-(5-(3-(pyrrolidin-1-yl)-5-(trifluoromethyl)benzyl)octahydropyrrolo[3,4-c]pyrrole-2-carbonyl)-1H-pyrazol-4-yl)acetamide] | ≥ 75 | ≥ 75 | ≤ 100 | ≤ 100
4 | CC(=O)N(C)c1cnn(C(=O)N2CCC3(CCN(Cc4ccc(C(F)(F)F)c(N5CCOCC5)c4)C3)C2)c1 (stereo not shown) [Example 61, N-methyl-N-(1-(7-(3-morpholino-4-(trifluoromethyl)benzyl)-2,7-diazaspiro[4.4]nonane-2-carbonyl)-1H-pyrazol-4-yl)acetamide] | ≥ 75 | ≥ 75 | ≤ 100 | ≤ 100
5 | CS(=O)(=O)Nc1cnn(C(=O)N2CC3CN(Cc4ccc(Cl)cc4)CC3C2)c1 (stereo not shown) [Example 8, N-(1-(5-(4-chlorobenzyl)octahydropyrrolo[3,4-c]pyrrole-2-carbonyl)-1H-pyrazol-4-yl)methanesulfonamide] | 0 to 25 | ≥ 75 | 1000 to 10000 | 100 to 1000
6 | CC(=O)N(C)c1cnn(C(=O)N2CCC3(CCN(Cc4cccc(Cl)c4C)C3)C2)c1 (stereo not shown) [Example 57, N-(1-(7-(3-chloro-2-methylbenzyl)-2,7-diazaspiro[4.4]nonane-2-carbonyl)-1H-pyrazol-4-yl)-N-methylacetamide] | ≥ 75 | ≥ 75 | 100 to 1000 | ≤ 100
7 | CC(=O)N(C)c1cnn(C(=O)N2CC3CN(Cc4ccc(N5CCCC5)c(C(F)(F)F)c4)CC3C2)c1 (stereo not shown) [Example 97, N-methyl-N-(1-(5-(4-(pyrrolidin-1-yl)-3-(trifluoromethyl)benzyl)octahydropyrrolo[3,4-c]pyrrole-2-carbonyl)-1H-pyrazol-4-yl)acetamide] | ≥ 75 | ≥ 75 |  | 
8 | CS(=O)(=O)Nc1cnn(C(=O)N2CC3CN(Cc4ccccc4Cl)CC3C2)c1 (stereo not shown) [Example 6, N-(1-(5-(2-chlorobenzyl)octahydropyrrolo[3,4-c]pyrrole-2-carbonyl)-1H-pyrazol-4-yl)methanesulfonamide] | 0 to 25 | ≥ 75 | 1000 to 10000 | 100 to 1000
9 | CC(=O)N(C)c1cnn(C(=O)N2CC3CN(Cc4cccc(N5CCOCC5)c4)CC3C2)c1 (stereo not shown) [Example 121, N-methyl-N-(1-(5-(3-morpholinobenzyl)octahydropyrrolo[3,4-c]pyrrole-2-carbonyl)-1H-pyrazol-4-yl)acetamide] | ≥ 75 | 50 to 75 |  | 
10 | CC(=O)N(C)c1cnn(C(=O)N2CC3(CCN(Cc4cccc(C)c4)CC3)C2)c1 [Example 83, N-methyl-N-(1-(7-(3-methylbenzyl)-2,7-diazaspiro[3.5]nonane-2-carbonyl)-1H-pyrazol-4-yl)acetamide] | 25 to 50 | 25 to 50 |  | 
11 | CC(=O)N(C)c1cnn(C(=O)N2C[C@H]3C[C@@H](NCc4ccc(Cl)cc4)C[C@H]3C2)c1 [Example 135, N-(1-(cis-5-(4-chlorobenzylamino)octahydrocyclopenta[c]pyrrole-2-carbonyl)-1H-pyrazol-4-yl)-N-methylacetamide] | ≥ 75 | ≥ 75 |  | 
12 | CC(=O)N(C)c1cnn(C(=O)N2C[C@H]3C[C@H](N(C)Cc4ccccc4Cl)C[C@H]3C2)c1 [Example 145, N-(1-(trans-5-((2-chlorobenzyl)(methyl)amino)octahydrocyclopenta[c]pyrrole-2-carbonyl)-1H-pyrazol-4-yl)-N-methylacetamide] | ≥ 75 | ≥ 75 | ≤ 100 | ≤ 100

Results, then the compound that gave them:

Row | inhibition at 1 µM [1] [%] | inhibition at 1 µM [2] [%] | IC50 [1] [nM] | IC50 [2] [nM] | SMILES
13 | 50 to 75 | 0 to 25 |  |  | CC(=O)N(C)c1cnn(C(=O)N2CCN(Cc3ccc(N4CCOCC4)cc3)CC2)c1 [Example 200, N-methyl-N-(1-(4-(4-morpholinobenzyl)piperazine-1-carbonyl)-1H-pyrazol-4-yl)acetamide]
14 | ≥ 75 | ≥ 75 |  |  | CC(=O)N(C)c1cnn(C(=O)N2C[C@H]3C[C@H](N(C)Cc4cc(N5CCCC5)cc(C(F)(F)F)c4)C[C@H]3C2)c1 [Example 160, N-methyl-N-(1-(trans-5-(methyl(3-(pyrrolidin-1-yl)-5-(trifluoromethyl)benzyl)amino)octahydrocyclopenta[c]pyrrole-2-carbonyl)-1H-pyrazol-4-yl)acetamide]
15 | ≥ 75 | ≥ 75 | ≤ 100 | 100 to 1000 | CC(=O)N(C)c1cnn(C(=O)N2CCC3(CCN(Cc4ccccc4Cl)C3)CC2)c1 [Example 186, N-(1-(2-(2-chlorobenzyl)-2,8-diazaspiro[4.5]decane-8-carbonyl)-1H-pyrazol-4-yl)-N-methylacetamide]
16 | ≥ 75 | ≥ 75 |  |  | CC(=O)N(C)c1cnn(C(=O)N2CC3CN(Cc4ccc(Oc5nc6ccccc6s5)cc4C(F)(F)F)CC3C2)c1 (stereo not shown) [Example 254, N-(1-(5-(4-(benzo[d]thiazol-2-yloxy)-2-(trifluoromethyl)benzyl)octahydropyrrolo [3,4-c]pyrrole-2-carbonyl)-1H-pyrazol-4-yl)-N-methylacetamide]
17 | ≥ 75 | 50 to 75 | ≤ 100 | 1000 to 10000 | CC(=O)N(C)c1cnn(C(=O)N2CCN(Cc3cc(N4CCCC4)cc(C(F)(F)F)c3)CC2)c1 [Example 190, N-methyl-N-(1-(4-(3-(pyrrolidin-1-yl)-5-(trifluoromethyl)benzyl)piperazine-1-carbonyl)-1H-pyrazol-4-yl)acetamide]
18 | ≥ 75 | ≥ 75 | ≤ 100 | 100 to 1000 | CC(=O)N(C)c1cnn(C(=O)N2CCN(Cc3cccc(C)c3)CC2)c1 [Example 206, N-methyl-N-(1-(4-(3-methylbenzyl)piperazine-1-carbonyl)-1H-pyrazol-4-yl)acetamide]
19 | ≥ 75 | ≥ 75 | ≤ 100 | ≤ 100 | CC(=O)N(C)c1cnn(C(=O)N2CC3CN(Cc4cccc(Oc5ccc(Cl)cc5)c4)CC3C2)c1 (stereo not shown) [Example 237, N-(1-(5-(3-(4-chlorophenoxy)benzyl)octahydropyrrolo [3,4-c]pyrrole-2-carbonyl)-1H-pyrazol-4-yl)-N-methylacetamide]
20 | ≥ 75 | ≥ 75 | ≤ 100 | ≤ 100 | CC(=O)N(C)c1cnn(C(=O)N2CC3CN(Cc4cccc(OCc5ccccc5)c4)CC3C2)c1 (stereo not shown) [Example 239, N-(1-(5-(3-(benzyloxy)benzyl)octahydropyrrolo[3,4-c]pyrrole-2-carbonyl)-1H-pyrazol-4-yl)-N-methylacetamide]
21 | ≥ 75 | ≥ 75 | 100 to 1000 | ≤ 100 | CC(=O)N(C)c1cnn(C(=O)N2CCC3(CCN(Cc4cc(Cl)ccc4Cl)C3)C2)c1 (racemic) [Example 175, N-(1-(7-(2,5-dichlorobenzyl)-2,7-diazaspiro[4.4]nonane-2-carbonyl)-1H-pyrazol-4-yl)-N-methylacetamide]
22 | ≥ 75 | ≥ 75 |  |  | CC(=O)N(C)c1cnn(C(=O)N2CCC3(CCN(Cc4ccc(-c5cccnn5)cc4Cl)C3)C2)c1 (stereo not shown) [Example 263, N-(1-(7-(2-chloro-4-(pyridazin-3-yl)benzyl)-2,7-diazaspiro[4.4]nonane-2-carbonyl)-1H-pyrazol-4-yl)-N-methylacetamide]
23 | ≥ 75 | ≥ 75 | ≤ 100 | 100 to 1000 | CS(=O)(=O)Nc1cnn(C(=O)N2CC3CN(Cc4cc(Cl)ccc4C(F)(F)F)CC3C2)c1 (stereo not shown) [Example 275, N-(1-(5-(5-chloro-2-(trifluoromethyl)benzyl)octahydropyrrolo [3,4-c]pyrrole-2-carbonyl)-1H-pyrazol-4-yl)methanesulfonamide]
24 | ≥ 75 | ≥ 75 | 100 to 1000 | 100 to 1000 | CC(=O)N(C)c1cnn(C(=O)N2CCN(Cc3ccccc3Cl)CC2)c1 [Example 192, N-(1-(4-(2-chlorobenzyl)piperazine-1-carbonyl)-1H-pyrazol-4-yl)-N-methylacetamide]
25 | ≥ 75 | 0 to 25 |  |  | CC(=O)N(C)c1cnn(C(=O)N2C[C@H]3C[C@H](N(Cc4ccc(Cl)cc4)C(C)=O)C[C@H]3C2)c1 [Example 174, N-(4-chlorobenzyl)-N-(trans-2-(4-(N-methylacetamido)-1H-pyrazole-1-carbonyl)octahydrocyclopenta[c]pyrrol-5-yl)acetamide]
